Test results published in PubChem BioAssay (NCI).
Several values for one entry are separate records, joined by “and”; a condition that tells them apart may be missing. Equal entries are not always repeated.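 Five concentrations, 48 hours, 96-well plates. Here, GI50 denotes the concentration required for 50% inhibition of growth. TGI marks complete inhibition of growth.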

Each compound was assayed on KM12 colon (assay: NCI anticancer screen, dose series, 48 h).
`C[C@H]1CC[P+](C)(c2ccccc2)C1` (stereo partly drawn) was tested, and the TGI was over 100 µM.
Work on `COc1cc(OC)c2c(=O)c3cccc([N+](=O)[O-])c3n(C)c2c1` yielded a TGI of over 100 µM.
For `COc1cccc(/C=N\NC(=O)C(C)SC(C)C(=O)N/N=C/c2cccc(OC)c2)c1` (stereo not drawn), the TGI was over 67.3 µM.
Work on `O=[N+]([O-])/C=C/c1ccc(Cl)cc1[N+](=O)[O-]` yielded a GI50 of 3.09 µM and a TGI of over 100 µM.
With `O=C(O)c1ccccc1NCn1c(=S)sc2ccccc21` the TGI was over 100 µM.
Work on `Cc1cc(C)nc(NS(=O)(=O)c2ccc(Nc3c4ccccc4nc4c(C(=O)NCCN(C)C)cccc34)cc2)n1` yielded a TGI of 18.4 µM.
`COc1cc2c3c(n(CCCNCCCNCCCN)c(=O)c2cc1OC)-c1cc2c(cc1C3=O)OCO2` was tested, and the GI50 was over 100 µM and the TGI was over 100 µM.
Work on `COc1cc2c(c(OC)c1OC)C(=O)NCCC2` yielded a TGI of over 100 µM.
Compound `O=C1CCC(=O)N1Sc1ccccc1` has a TGI of over 100 µM.
With `O=C(/C=C/c1ccccc1O)c1ccccc1Cl` the TGI was over 100 µM.
For `CCCCC1(C(NC(=O)c2ccccc2Cl)c2ccncc2)C(=O)N(c2ccccc2)N(c2ccccc2)C1=O` (stereo not drawn), the TGI was over 100 µM.
With `COc1ccc(/C=N/NS(=O)(=O)c2ccccc2)cc1` the TGI was over 100 µM.
Work on `C1=CC2CCC1CN2CCC1CNc2ccccc21` (stereo not drawn) yielded a TGI of over 100 µM.
Work on `O=CN1N=C(c2cccc(Nc3ccnc4cc(Cl)ccc34)c2)CC1c1ccc(Cl)cc1` (stereo not drawn) yielded a GI50 of 0.591 µM and a TGI of over 100 µM.
`O=C1C(=O)C2(CC1S(=O)(=O)c1ccccc1)c1ccccc1-c1ccccc12` (stereo not drawn) gave a TGI of 33.9 µM.
`O=c1oc2c3ccc4ccccc4c3n(CCN3CCCCC3)c2c2ccccc12` gave a TGI of over 100 µM.
`CN1CCc2ccccc2C(C(=O)c2ccc3c(c2)OCO3)C1=O` (stereo not drawn) gave a TGI of over 100 µM.
Compound `Cc1cc(Cl)ccc1NC(=O)C1C(=O)N(c2ccc(Cl)cc2C)C(=O)/C1=N\NC(N)=S` (stereo not drawn) has a TGI of over 100 µM.
For `COc1ccc(Br)c(C(=O)N2CCc3ccccc32)c1N`, the TGI was over 100 µM.
In the case of `CC(=O)Oc1cc2cnc3c4cc(OC(C)=O)c(OC(C)=O)cc4ccc3c2cc1OC(C)=O`, the GI50 is reported as 2.47 µM and the TGI is reported as over 100 µM.
For `Cc1ccc2ccc(-c3ccccc3)c3c2c1C(=O)c1ccccc1C3=O`, the TGI was over 100 µM.
`OCC(O)C(O)C(O)c1nn(-c2ccc(F)cc2)c2nc3cc(Cl)c(Cl)cc3nc12` (stereo not drawn) was tested, and the TGI was 84.8 µM.
Compound `COc1ccc(C2Cc3cc(OC)c(OC)c(OC)c3C2)cc1` (stereo not drawn) has a TGI of over 100 µM.
With `C=C1C[C@@H]2O[C@H]3[C@H]4[C@@H](CC[C@@](C)(OC(=O)CCC)[C@H]42)[C@@H](C)C(=O)O[C@@]3(C)CC[C@H]1OO` the GI50 was 16.4 µM and the TGI was 30.9 µM.

What follows are compounds tested on MDA-MB-231 breast (assay: NCI anticancer screen, dose series, 48 h).
`COc1cc(N(C)C)c(OC)cc1C=C1C=CC=C1` was tested, and the TGI was over 100 µM.
For `C=C1CC[C@H]2C(C)=CC[C@H]3C(=C)C(=O)O[C@@H]3[C@@H]12`, the TGI was over 100 µM.
`O=[N+]([O-])/C=C/c1ccc(Cl)cc1[N+](=O)[O-]` gave a GI50 of 2.33 µM and a TGI of 6.46 µM.
Work on `O=C(O)c1ccccc1NCn1c(=S)sc2ccccc21` yielded a TGI of over 100 µM.
In the case of `CCCCCCCCCCCCCCCC[n+]1ccccc1`, the GI50 is reported as 0.44 µM and 0.805 µM and the TGI is reported as 1.74 µM and 2.7 µM.
`COc1cc2c3c(n(CCCNCCCNCCCN)c(=O)c2cc1OC)-c1cc2c(cc1C3=O)OCO2` showed a GI50 of over 100 µM and a TGI of over 100 µM.
`O=CN1N=C(c2cccc(Nc3ccnc4cc(Cl)ccc34)c2)CC1c1ccc(Cl)cc1` (stereo not drawn) showed a GI50 of 2.12 µM and a TGI of over 100 µM.
`CC(=O)Oc1cc2cnc3c4cc(OC(C)=O)c(OC(C)=O)cc4ccc3c2cc1OC(C)=O` showed a GI50 of 1.02 µM and a TGI of over 100 µM.
`C=C1C[C@@H]2O[C@H]3[C@H]4[C@@H](CC[C@@](C)(OC(=O)CCC)[C@H]42)[C@@H](C)C(=O)O[C@@]3(C)CC[C@H]1OO` showed a GI50 of 17.9 µM and a TGI of 33.2 µM.

The compounds below were run on OVCAR-3 ovarian (assay: NCI anticancer screen, dose series, 48 h).
In the case of `CC1(C)OC(=O)C(=C2CCC(C(=O)Nc3cccc(C(F)(F)F)c3)N2)C(=O)O1` (stereo not drawn), the TGI is reported as over 100 µM.
With `CN(C)CCN1CCc2c([nH]c3ccccc23)C1c1cccnc1` (stereo not drawn) the TGI was over 100 µM.
`CN(C)c1ccc(C(O)C2=CC(=O)c3ccccc3C2=O)cc1` (stereo not drawn) was tested, and the GI50 was 2.75 µM.
For `CCN(c1ccccc1)[C@H]1C(=O)N(c2ccc([N+](=O)[O-])cc2)[C@H]1c1ccc(OC)cc1`, the TGI was over 100 µM.
For `COc1ccc(/C=C\c2cc(OC)c(OC)c(OC)c2)cc1`, the TGI was 0.000152 µM.
Compound `COc1cc(N(C)C)c(OC)cc1C=C1C=CC=C1` has a TGI of over 100 µM.
With `C[C@H]1CC[P+](C)(c2ccccc2)C1` (stereo partly drawn) the TGI was over 100 µM.
`COc1cccc(/C=N\NC(=O)C(C)SC(C)C(=O)N/N=C/c2cccc(OC)c2)c1` (stereo not drawn) was tested, and the TGI was 39.3 µM.
For `O=C(O)c1ccccc1NCn1c(=S)sc2ccccc21`, the TGI was over 100 µM.
Work on `CCCCCCCCCCCCCCCC[n+]1ccccc1` yielded a GI50 of 0.366 µM and a TGI of 1.5 µM.
With `COc1cc2c3c(n(CCCNCCCNCCCN)c(=O)c2cc1OC)-c1cc2c(cc1C3=O)OCO2` the GI50 was 0.879 µM and the TGI was 52.6 µM.
`COc1cc2c(c(OC)c1OC)C(=O)NCCC2` was tested, and the TGI was over 100 µM.
Work on `O=C1CCC(=O)N1Sc1ccccc1` yielded a TGI of over 100 µM.
For `O=C(/C=C/c1ccccc1O)c1ccccc1Cl`, the TGI was over 100 µM.
Work on `CCCCC1(C(NC(=O)c2ccccc2Cl)c2ccncc2)C(=O)N(c2ccccc2)N(c2ccccc2)C1=O` (stereo not drawn) yielded a TGI of over 100 µM.
`COc1ccc(/C=N/NS(=O)(=O)c2ccccc2)cc1` showed a TGI of over 100 µM.
`C1=CC2CCC1CN2CCC1CNc2ccccc21` (stereo not drawn) was tested, and the TGI was over 100 µM.
For `O=CN1N=C(c2cccc(Nc3ccnc4cc(Cl)ccc34)c2)CC1c1ccc(Cl)cc1` (stereo not drawn), the GI50 was 1.2 µM and the TGI was 7.71 µM.
Work on `O=C1C(=O)C2(CC1S(=O)(=O)c1ccccc1)c1ccccc1-c1ccccc12` (stereo not drawn) yielded a TGI of over 10 µM.
In the case of `O=c1oc2c3ccc4ccccc4c3n(CCN3CCCCC3)c2c2ccccc12`, the TGI is reported as 54.1 µM.
In the case of `Cc1ccc(S(=O)C(C)C(Cl)c2ccccc2)cc1` (stereo not drawn), the TGI is reported as over 100 µM.
`CN1CCc2ccccc2C(C(=O)c2ccc3c(c2)OCO3)C1=O` (stereo not drawn) showed a TGI of over 100 µM.
With `Cc1cc(Cl)ccc1NC(=O)C1C(=O)N(c2ccc(Cl)cc2C)C(=O)/C1=N\NC(N)=S` (stereo not drawn) the TGI was over 100 µM.
`COc1ccc(Br)c(C(=O)N2CCc3ccccc32)c1N` was tested, and the TGI was 66.2 µM.
`CC(=O)Oc1cc2cnc3c4cc(OC(C)=O)c(OC(C)=O)cc4ccc3c2cc1OC(C)=O` was tested, and the GI50 was 1.01 µM and the TGI was 9.5 µM.
`Cc1ccc2ccc(-c3ccccc3)c3c2c1C(=O)c1ccccc1C3=O` showed a TGI of over 100 µM.
Compound `OCC(O)C(O)C(O)c1nn(-c2ccc(F)cc2)c2nc3cc(Cl)c(Cl)cc3nc12` (stereo not drawn) has a TGI of 49.5 µM.
In the case of `COc1ccc(C2Cc3cc(OC)c(OC)c(OC)c3C2)cc1` (stereo not drawn), the TGI is reported as over 100 µM.
`C=C1C[C@@H]2O[C@H]3[C@H]4[C@@H](CC[C@@](C)(OC(=O)CCC)[C@H]42)[C@@H](C)C(=O)O[C@@]3(C)CC[C@H]1OO` was tested, and the GI50 was 13.9 µM and the TGI was 29.2 µM.
